# Laboratory results from ChEMBL document CHEMBL4130519, “Resorcinol-Based Grp94-Selective Inhibitors” (ACS Med Chem Lett, 2017).
# Experiments:
# RPMI-8226 = assay: Growth inhibition of human RPMI8226 cells after 72 hrs by MTS/PMS assay; format: functional; conditions: RPMI-8226, 72 h
# Endoplasmin = Endoplasmin (Canis lupus familiaris, UniProt P41148); assay: Displacement of FITC-GDA from recombinant canine Grp94 expressed in baculovirus infected Sf21 insect cells after 24 hrs by fluorescence polarization assay; conditions: read-out: Kd(app)
# Sequence of Endoplasmin (P41148 whole entry): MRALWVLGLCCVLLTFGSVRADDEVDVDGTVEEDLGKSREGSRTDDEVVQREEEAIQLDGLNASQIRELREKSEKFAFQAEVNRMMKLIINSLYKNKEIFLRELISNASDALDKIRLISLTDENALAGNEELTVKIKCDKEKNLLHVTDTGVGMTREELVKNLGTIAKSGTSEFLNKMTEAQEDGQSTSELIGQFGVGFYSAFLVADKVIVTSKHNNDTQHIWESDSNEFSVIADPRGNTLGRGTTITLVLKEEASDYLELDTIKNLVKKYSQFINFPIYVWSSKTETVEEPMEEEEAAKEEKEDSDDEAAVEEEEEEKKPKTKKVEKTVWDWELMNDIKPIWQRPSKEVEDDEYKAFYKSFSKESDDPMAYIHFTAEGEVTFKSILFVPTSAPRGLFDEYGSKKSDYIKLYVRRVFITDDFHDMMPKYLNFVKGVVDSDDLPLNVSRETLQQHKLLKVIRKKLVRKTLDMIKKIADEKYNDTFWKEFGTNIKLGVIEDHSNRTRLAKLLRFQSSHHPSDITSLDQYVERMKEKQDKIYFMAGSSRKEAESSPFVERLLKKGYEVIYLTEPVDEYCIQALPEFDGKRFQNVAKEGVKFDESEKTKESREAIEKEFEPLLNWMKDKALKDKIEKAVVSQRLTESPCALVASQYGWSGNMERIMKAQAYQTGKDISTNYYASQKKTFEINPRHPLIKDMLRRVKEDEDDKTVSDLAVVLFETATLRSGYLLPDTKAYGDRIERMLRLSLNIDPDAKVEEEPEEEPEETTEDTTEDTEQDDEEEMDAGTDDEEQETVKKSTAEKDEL
# [1] = molecular target: Heat shock protein HSP 90-alpha (Homo sapiens, UniProt P07900); assay: Displacement of FITC-GDA from Hsp90alpha (unknown origin) after 24 hrs by fluorescence polarization assay; conditions: read-out: Kd(app)
# Heat shock protein HSP90 [2] = molecular target: T1, Heat shock protein HSP90 (Homo sapiens, UniProt P07900+P08238); assay: Inhibition of Hsp90 in human RPMI8226 cells assessed as induction of Akt degradation at 0.75 to 7.5 uM after 24 hrs by Western blot analysis; format: cell-based
# Heat shock protein HSP90 [3] = molecular target: T1, Heat shock protein HSP90; assay: Inhibition of Hsp90 in human RPMI8226 cells assessed as induction of Hsp70 expression at 0.75 to 7.5 uM after 24 hrs by Western blot analysis; format: cell-based
compound,measurement,setting,value
COC(=O)c1c(O)cc(O)c(Cl)c1CCc1nccn1Cc1ccccc1,GI50,RPMI-8226,10200 nM
Cc1ccc(Sc2cc(C(=O)N3Cc4ccccc4C3)c(O)cc2O)cc1C,Kd,Endoplasmin,21 nM
same,Kd,[1],66 nM
O=C(c1cc(Sc2ccccc2)c(O)cc1O)N1Cc2ccccc2C1,Kd,Endoplasmin,13 nM
same,Kd,[1],26 nM
O=C(c1cc(Sc2ccccc2O)c(O)cc1O)N1Cc2ccccc2C1,Kd,Endoplasmin,29 nM
same,Kd,[1],65 nM
O=C(c1cc(Sc2ccc(Cl)cc2Cl)c(O)cc1O)N1Cc2ccccc2C1,Kd,Endoplasmin,59 nM
same,Kd,[1],460 nM
Cc1ccc(Cc2cc(C(=O)N3Cc4ccccc4C3)c(O)cc2O)cc1,Kd,Endoplasmin,40 nM
same,Kd,[1],40 nM
same,GI50,RPMI-8226,2700 nM
O=C(c1cc(Sc2ccc(O)cc2)c(O)cc1O)N1Cc2ccccc2C1,Kd,Endoplasmin,70 nM
same,Kd,[1],52 nM
O=C(c1cc(Br)c(O)cc1O)N1Cc2ccccc2C1,Kd,Endoplasmin,20 nM
O=C(c1cc(-c2ccccc2)c(O)cc1O)N1Cc2ccccc2C1,Kd,Endoplasmin,> 100000 nM
same,Kd,[1],> 100000 nM
same,GI50,RPMI-8226,> 25000 nM
O=C(c1cc(N2CCc3ccccc32)c(O)cc1O)N1Cc2ccccc2C1,Kd,Endoplasmin,9890 nM
same,Kd,[1],> 50000 nM
O=C(c1cc(Sc2cc(Cl)cc(Cl)c2)c(O)cc1O)N1Cc2ccccc2C1,Kd,Endoplasmin,31 nM
same,Kd,[1],29 nM
Cc1ccc(Sc2cc(C(=O)N3Cc4ccccc4C3)c(O)cc2O)c(C)c1,Kd,Endoplasmin,30 nM
same,Kd,[1],70 nM
O=C(c1cc(Cc2ccc(Cl)cc2)c(O)cc1O)N1Cc2ccccc2C1,Kd,Endoplasmin,13 nM
same,Kd,[1],60 nM
same,GI50,RPMI-8226,3000 nM
COC(=O)c1cc(C(=O)N2Cc3ccccc3C2)c(O)cc1O,Kd,Endoplasmin,> 10000 nM
same,Kd,[1],> 10000 nM
same,GI50,RPMI-8226,13800 nM
O=C(c1cc(Cc2ccccc2Cl)c(O)cc1O)N1Cc2ccccc2C1,Kd,Endoplasmin,60 nM
same,Kd,[1],200 nM
O=C(c1cc(Cc2ccccc2)c(O)cc1O)N1Cc2ccccc2C1,Kd,Endoplasmin,15 nM
same,Kd,[1],66 nM
same,GI50,RPMI-8226,3700 nM
O=C(c1cc(Cc2ccc(F)cc2)c(O)cc1O)N1Cc2ccccc2C1,Kd,Endoplasmin,8 nM
same,Kd,[1],77 nM
same,GI50,RPMI-8226,1400 nM
same,inhibition (INH),Heat shock protein HSP90 [2],Not Active
same,inhibition (INH),Heat shock protein HSP90 [3],Not Active
COc1cccc(Sc2cc(C(=O)N3Cc4ccccc4C3)c(O)cc2O)c1,Kd,Endoplasmin,34 nM
same,Kd,[1],37 nM
same,GI50,RPMI-8226,1900 nM
CCOC(=O)c1cc(C(=O)N2Cc3ccccc3C2)c(O)cc1O,Kd,Endoplasmin,770 nM
same,Kd,[1],3520 nM
Cc1ccc(C)c(Sc2cc(C(=O)N3Cc4ccccc4C3)c(O)cc2O)c1,Kd,Endoplasmin,29 nM
same,Kd,[1],31 nM
COC1=C2C[C@@H](C)C[C@H](OC)[C@H](O)[C@@H](C)/C=C(\C)[C@H](OC(N)=O)[C@@H](OC)/C=C\C=C(/C)C(=O)NC(=CC1=O)C2=O [GELDANAMYCIN],GI50,RPMI-8226,3 nM
